The values that follow come from ChEMBL document CHEMBL1811820, “Vicenin-2, a potential anti-inflammatory constituent of Urtica circularis” (J Nat Prod, 2011).

Structures are written as SMILES. Active and inactive are the calls of the source. The rule behind the calls is not given here.

The test system of data set [1] is Mus musculus. Put plainly: Antiinflammatory activity against Swiss mouse assessed as inhibition of 12-O-tetradecanoylphorbol acetate-induced ear edema at 1 mg/ear, topically administered measured after 4 hrs of 12-O-tetradecanoylphorbol acetate-challenge. Type of data set: functional.
Data set [2] deals with Rattus norvegicus. Put plainly: Antiinflammatory activity against Sprague-Dawley rat assessed as inhibition of carrageenan-induced paw edema at 10 mg/kg, ip administered 30 mins prior to carrageenan challenge measured after 5 hrs. The note with it: route intraperitoneal. The data set is classed as functional. Background: Carrageenan injected into the paw causes an acute inflammation.

Data set [3] is described as follows: Pro-inflammatory activity in mouse peritoneal macrophage assessed as increased NO production at 1000 ug/mL after 10 mins using Griess reagent by spectrophotometry in presence of LPS. The data set is classed as ADME, cell-based. Particulars: peritoneal macrophage cell. In general terms: The Griess reaction detects nitrite, a stable product of nitric oxide.
Data set [4] can be described thus: Antiinflammatory activity in mouse peritoneal macrophage assessed as increase in LPS-stimulated TNFalpha release at 100 to 1000 ug/mL after 24 hrs by ELISA relative to control in presence of LPS. Type of data set: functional, Peritoneal macrophage cell. On the technique in general: In an ELISA, binding on a coated surface is turned into a signal by an enzyme label.

Data set [5] deals with Peritoneal macrophage cell. Put plainly: Antiinflammatory activity in mouse peritoneal macrophage assessed as decrease in LPS-stimulated TNFalpha release at 0.01 to 10 ug/mL after 24 hrs by ELISA relative to control in presence of LPS. Type of data set: functional, cell-based.
The target of data set [6] is Transcription factor p65 (Mus musculus) (UniProt Q04207). Put plainly: Inhibition of NF-kappaB p65 nuclear translocation in LPS-stimulated mouse peritoneal macrophage at 0.01 to 10 ug/mL after 24 hrs by nuclear absorbance assay.
Chain of Transcription factor p65 (Mus musculus) (Q04207 whole entry): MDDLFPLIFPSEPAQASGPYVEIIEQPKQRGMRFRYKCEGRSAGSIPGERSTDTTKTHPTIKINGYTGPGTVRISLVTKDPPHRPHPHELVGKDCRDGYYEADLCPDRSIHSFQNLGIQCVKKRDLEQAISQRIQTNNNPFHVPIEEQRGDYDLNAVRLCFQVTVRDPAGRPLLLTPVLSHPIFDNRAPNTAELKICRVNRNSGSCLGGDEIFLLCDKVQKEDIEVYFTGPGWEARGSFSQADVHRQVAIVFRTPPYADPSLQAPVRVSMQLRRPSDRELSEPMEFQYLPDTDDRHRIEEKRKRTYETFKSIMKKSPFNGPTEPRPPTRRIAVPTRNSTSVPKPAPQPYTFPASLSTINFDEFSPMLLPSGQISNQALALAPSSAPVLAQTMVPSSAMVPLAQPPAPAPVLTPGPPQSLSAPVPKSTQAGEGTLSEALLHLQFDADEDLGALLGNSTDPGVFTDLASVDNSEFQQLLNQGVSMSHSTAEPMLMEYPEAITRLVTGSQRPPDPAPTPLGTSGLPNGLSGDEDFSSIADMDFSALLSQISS
For data set [7] the target is unchanged. Put plainly: Inhibition of NF-kappaB p65 nuclear translocation in LPS-stimulated mouse peritoneal macrophage at 10 to 500 ug/mL after 24 hrs by nuclear absorbance assay.
Data set [8] shares this target. Put plainly: Increase in NF-kappaB p65 nuclear translocation in LPS-stimulated mouse peritoneal macrophage at 1000 ug/mL after 24 hrs by nuclear absorbance assay.
A short description of data set [9]: Antiinflammatory activity in mouse peritoneal macrophage assessed as decreased LPS-stimulated NO production at 0.01 to 1 ug/mL after 10 mins using Griess reagent by spectrophotometry. The data set is classed as functional, Peritoneal macrophage cell.
Data set [10] in a line: Antiinflammatory activity in mouse peritoneal macrophage assessed as decreased LPS-stimulated NO production at 10 to 500 ug/mL after 10 mins using Griess reagent by spectrophotometry. Type of data set: functional, Peritoneal macrophage cell.

As usually defined, the inhibition in vivo is how much of the control response was suppressed. Regarding `COc1ccc2c(c1)c(CC(=O)O)c(C)n2C(=O)c1ccc(Cl)cc1` [INDOMETHACIN], the “inhibition (INH)” value in data set [1] was 87.3%. For the same compound, in data set [2], the inhibition in vivo at 10 mg/kg worked out at 38.4%.

As for `O=c1cc(-c2ccc(O)cc2)oc2c([C@@H]3O[C@H](CO)[C@@H](O)[C@H](O)[C@H]3O)c(O)c([C@@H]3O[C@H](CO)[C@@H](O)[C@H](O)[C@H]3O)c(O)c12`, the Activity entry in [3] is recorded as “Toxic”; in data set [4] it was 62%. In addition, the outcome in data set [5] was Active. The inhibition result in data set [6] was “Active”. The inhibition entry in data set [7] was “inactive”. Besides, the result in data set [8] was inactive. In addition, the entries for the “inhibition (INH)” value in data set [9] and in data set [10] were 70% and 16%, respectively.
